# According to patent publication US20230324382A1, “ANTIPHOSPHOLIPID ANTIBODIES FOR THE DIAGNOSIS OF LYME DISEASE” (Trustees of Tufts College, priority 2022, published 2023):
# Tests used:
# E. coli = experiment: Incorporation of NBD-PC, other species; type: cell-based, Escherichia coli MG1655; settings: 25 μM NBD-PC, 4 hours
# Experimental: (§1) Cells were grown to a stationary phase (5 days) in BSK and then pelleted (5 minutes at 3220 g), washed once in an equal volume of PBS, and resuspended in an equal volume of dBSK. The cell suspension (1 mL) was added to nitrobenzoxadiazole-labeled (NBD-labeled) phospholipids (Avanti) to 25 μM. At hourly intervals, the cells were pelleted (5 minutes at 18,800 g), washed 3 times in 1 mL PBS, and resuspended in 100 μL PBS. The suspensions were transferred onto clear-bottomed, opaque 96-well plates (Corning), and fluorescence was recorded at excitation 460 nm/emission 540 nm (Ex460/Em540). Staphylococcus aureus 502a and Escherichia coli MG1655 were grown overnight in tryptic soy broth (TSB): tryptone (17.0 g/L), soytone (3.0), glucose (2.5), sodium chloride (5.0), and dipotassium phosphate (2.5). Incorporation of NBD-phospholipids was carried out in TSB, with subsequent washing and measurement as above.
# (§2) After fluorescence measurements, 5 μL cell suspensions were spotted onto glass slides and fixed with 5 μL ProLong Gold (Thermo Fisher Scientific) with DAPI. […] For all 3 bacterial species imaged, the laser power was calibrated such that minimal autofluorescence was detected in unlabeled cells prior to imaging of the labeled cells.
# B. burgdorferi = experiment: Retention of NBD-PC in the membrane after transfer to rich medium; type: cell-based, Borrelia burgdorferi
# Excerpt: FIG. 12 is a graph illustrating that phospholipids are retained in the membrane in the absence of an environmental source. B. burgdorferi was labelled with NBD-PC in lipid-depleted dBSK medium for four hours, washed, and resuspended in rich medium. […] Points are the mean of three biological replicates, with error bars the standard deviation.
# This is indicative of nonspecific uptake and is consistent with a model of random diffusion into the membrane. Fluorescence was detectable for up to 4 days after the initial labeling, with a half-life of approximately 1 day (FIG. 12).
# S. aureus = experiment: Incorporation of NBD-PC, other species; type: cell-based, Staphylococcus aureus 502a; settings: 25 μM NBD-PC, 4 hours
# Experimental: as §1, §2
substance,measurement,setting,value
NBD-PC,entry of fluorescent phospholipid into membranes,E. coli,did not enter the membranes
same,fluorescence intensity as % of D0,B. burgdorferi; day 1,56%
same,fluorescence intensity as % of D0,B. burgdorferi; day 4,~7%
same,entry of fluorescent phospholipid into membranes,S. aureus,did not enter the membranes
